Results as given in patent US20240245634A1, “PCNA INHIBITORS AND EGFR INHIBITORS FOR CANCER TREATMENT” (City of Hope, priority 2021, published 2024).
Entries after “also recorded” stand apart in the source; their conditions may differ.

How the values were obtained:
PCNA = molecular target: T1, PCNA (Homo sapiens, UniProt P12004); experiment: Immunofluorescence imaging of PCNA in MDA-MB-468 cells; assay type: cell-based; conditions: MDA-MB-468, serum starved, 30 minutes drug, then 15 minutes EGF
T1 construct: endogenous in cells; host or cells: MDA-MB-468
Method: (§1) Serum starved cells were treated for 30 minutes with DMSO, AOH1996, Osi, or AOH1996 and Osi followed by 15 minutes of EGF stimulation.

[1] = tested on: cell lines (14837, 14838) engineered to express oncogenic KRAS; experiment: Dose response assay on cell lines with doxycycline-inducible mutant KRAS; assay type: cell-based; conditions: with doxycycline (KRAS expressed) versus without
Method: Some of those alterations are present in the NCI60 cell line and represented in the chart. Each circle represent cell lines with the resistance conferring genomic alteration listed on the x-axis. […] FIG. 5F: two cell lines (14837, 14838) engineered to express oncogenic KRAS in the presence of doxycycline (Dox) were treated with escalating doses of AOH1996 in a dose response assay.
(§2) Studies that explored acquisition of resistance to Osi have identified many genomic alterations that contribute to resistance. These alterations are present in some of the cell lines in the NCI60 cell line panel. The growth inhibitory effects of AOH1996 on the NCI60 panel has been measured through services offered by the NCI's Development Therapeutics Program.

CRC cell lines = experiment: IC50 on colorectal cancer cell lines of the NCI60 panel; assay type: cell-based; conditions: IC50 determined by the NCI Developmental Therapeutics Program
Method: FIGS. 7A-7B show EGFR targeted antibodies used in the treatment of colorectal cancer (CRC). […] CRC with KRAS and BRAF activating mutations are often difficult to treat but cell lines with mutant KRAS and BRAF are responsive to AOH1996. FIG. 7A: IC50 of CRC cell lines relative to the rest of the NCI60 cell lines. FIG. 7B: AOH1996 IC50 on CRC cell lines classified by presence and type of Ras-Raf-Mek-Erk pathway mutation. IC50s for the NCI60 cell lines was determined by the NCI Developmental Therapeutics Program. Mutation status of CRC cell lines was found in the Cellosaurus database.

NCI60 cell line panel = experiment: Growth inhibition on the NCI60 cell line panel (NCI Developmental Therapeutics Program); assay type: cell-based
Description: as §2

tumors = experiment: In vivo tumor suppression and tolerability
EGFR = molecular target: T2, EGFR (Homo sapiens, UniProt P00533); experiment: Immunofluorescence imaging of EGFR in MDA-MB-468 cells; assay type: cell-based; conditions: MDA-MB-468, serum starved, 30 minutes drug, then 15 minutes EGF
T2 construct: endogenous in cells; host or cells: MDA-MB-468
Method: as §1

T1 sequence (P12004 whole entry): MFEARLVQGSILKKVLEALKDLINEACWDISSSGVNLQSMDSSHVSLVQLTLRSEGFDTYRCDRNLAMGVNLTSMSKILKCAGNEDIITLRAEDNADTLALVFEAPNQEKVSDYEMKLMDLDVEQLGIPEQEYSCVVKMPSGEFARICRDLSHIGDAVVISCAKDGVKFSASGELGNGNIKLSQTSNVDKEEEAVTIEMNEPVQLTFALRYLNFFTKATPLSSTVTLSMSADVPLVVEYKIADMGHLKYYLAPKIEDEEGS
T2 sequence (P00533 25-1210): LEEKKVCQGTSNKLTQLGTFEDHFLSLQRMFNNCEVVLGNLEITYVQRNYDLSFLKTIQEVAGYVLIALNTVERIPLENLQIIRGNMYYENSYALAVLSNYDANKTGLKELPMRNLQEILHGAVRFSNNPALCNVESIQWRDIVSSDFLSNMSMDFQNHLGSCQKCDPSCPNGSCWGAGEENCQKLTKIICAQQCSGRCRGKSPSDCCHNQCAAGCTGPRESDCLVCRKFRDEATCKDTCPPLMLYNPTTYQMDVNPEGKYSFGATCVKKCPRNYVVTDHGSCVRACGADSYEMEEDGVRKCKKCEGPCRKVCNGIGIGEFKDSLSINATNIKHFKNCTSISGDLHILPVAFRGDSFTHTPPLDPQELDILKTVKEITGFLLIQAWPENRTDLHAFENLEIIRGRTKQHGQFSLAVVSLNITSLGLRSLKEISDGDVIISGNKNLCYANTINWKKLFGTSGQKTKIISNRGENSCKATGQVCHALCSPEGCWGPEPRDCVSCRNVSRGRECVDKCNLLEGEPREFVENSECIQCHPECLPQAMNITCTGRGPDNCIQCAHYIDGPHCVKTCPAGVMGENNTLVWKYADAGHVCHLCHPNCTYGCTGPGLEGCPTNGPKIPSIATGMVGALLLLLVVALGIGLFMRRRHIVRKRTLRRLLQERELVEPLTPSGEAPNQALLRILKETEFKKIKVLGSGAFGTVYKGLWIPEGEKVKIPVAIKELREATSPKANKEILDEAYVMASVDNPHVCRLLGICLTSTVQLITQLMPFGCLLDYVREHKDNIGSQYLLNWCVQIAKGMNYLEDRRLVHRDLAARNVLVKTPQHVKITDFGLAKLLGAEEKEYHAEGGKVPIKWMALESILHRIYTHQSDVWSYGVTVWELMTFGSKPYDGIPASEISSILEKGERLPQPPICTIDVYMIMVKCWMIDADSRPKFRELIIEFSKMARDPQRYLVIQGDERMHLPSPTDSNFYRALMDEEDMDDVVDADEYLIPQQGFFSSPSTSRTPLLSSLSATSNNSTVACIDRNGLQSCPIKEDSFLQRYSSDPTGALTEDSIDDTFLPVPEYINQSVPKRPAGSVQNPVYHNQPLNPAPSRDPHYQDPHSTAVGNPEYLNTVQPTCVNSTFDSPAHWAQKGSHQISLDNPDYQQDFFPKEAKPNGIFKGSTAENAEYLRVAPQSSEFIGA

Compound | PCNA localization (PCNA) | sensitivity with mutant KRAS expressed versus expression suppressed [1] | response of CRC cell lines with mutant KRAS and BRAF (CRC cell lines) | sensitivity of CRC cell lines relative to the rest of the NCI60 cell lines (CRC cell lines) | effect of genomic alterations conferring resistance to osimertinib on sensitivity to AOH1996 (NCI60 cell line panel; NCI60 cell lines carrying the alterations) | sensitivity of BRAF and KRAS mutant cell lines to AOH1996 (NCI60 cell line panel; NCI60 cell lines with BRAF V600E and activating KRAS mutations) | dose with no discernable side effects (tumors) | route of administration (tumors) | effect on tumors in vivo (tumors; oral) | EGFR localization and signal (EGFR)
C=CC(=O)Nc1cc(Nc2nccc(-c3cn(C)c4ccccc34)n2)c(OC)cc1N(C)CCN(C)C [osimertinib, reference compound] | less apparent | – | – | – | – | – | – | – | – | –
COc1cccc(Oc2ccccc2NC(=O)CNC(=O)c2cccc3ccccc23)c1 [AOH1996] | lost punctate staining of PCNA in the nucleus; also recorded: Nuclear PCNA foci were absent | sensitive to AOH1996 when mutant KRAS is expressed but not when expression was suppressed; also recorded: more sensitive | responsive | particularly sensitive | did not confer resistance | noticeable skew in distribution towards AOH1996 sensitivity; also recorded: greater sensitivity | more than 6 times its effective dose | orally administrable | effectively kills and suppresses tumors | accumulated EGFR at the cell membrane; also recorded: EGFR was localized to the cell membrane
